Emax and EC50 data for 9 compounds are collected here from patent US11485742B2, “2-azaspiro[3.4]octane derivatives as M4 agonists” (NOVARTIS AG, priority 2019, dated 2022).

The EC50 is the midpoint of the concentration-response curve.

SMILES strings stand for the structures. Bounds are passed on as bounds.

In experiment [1] the target is T1, human cloned CHRM5 receptor (Homo sapiens, UniProt P08912).
T1 construct: expressed in transfected cells; host or cells: CHO (M5_CHO)
T1 sequence (P08912 1-532): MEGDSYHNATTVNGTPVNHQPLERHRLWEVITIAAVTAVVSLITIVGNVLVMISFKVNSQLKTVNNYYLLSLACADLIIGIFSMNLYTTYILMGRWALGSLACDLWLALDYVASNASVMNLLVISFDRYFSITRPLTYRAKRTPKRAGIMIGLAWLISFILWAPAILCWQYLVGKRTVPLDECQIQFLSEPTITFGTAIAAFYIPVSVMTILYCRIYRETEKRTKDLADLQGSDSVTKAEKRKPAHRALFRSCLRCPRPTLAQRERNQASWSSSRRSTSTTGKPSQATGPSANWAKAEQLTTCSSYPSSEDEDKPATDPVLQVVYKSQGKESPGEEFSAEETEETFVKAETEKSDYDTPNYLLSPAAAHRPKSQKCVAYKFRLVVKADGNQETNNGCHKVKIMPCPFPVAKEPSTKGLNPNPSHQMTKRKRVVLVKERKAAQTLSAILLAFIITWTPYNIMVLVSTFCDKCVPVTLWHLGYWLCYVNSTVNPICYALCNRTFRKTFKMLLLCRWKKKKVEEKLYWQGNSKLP
Description: CHRM5 Ca++ Flux Assay (M5_CHO cells, agonist mode). The class given is cell-based. Particulars: for Emax: Percent Activity (PA) measured to EC100 of Carbachol, read-out: M5 FDSS PA %; for EC50: agonist mode, geometric mean if tested more than once, read-out: M5 FDSS EC50. The gist of the method: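 CHO-K1 cells stably expressing human M3 or M5 receptor, dye-loaded ≥1 h, treated with 11-point compound doses in triplicate; Ca++ flux read over 3 min (FDSS). Agonist-mode four-parameter fit; percent activity relative to carbachol EC100; repeat tests reported as geometric mean.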

The target of experiment [2] is T2, human cloned CHRM2 receptor (Homo sapiens, UniProt P08172).
T2 construct: expressed in transfected cells; host or cells: CHO-K1 (M2_CHO)
T2 sequence (P08172 1-466): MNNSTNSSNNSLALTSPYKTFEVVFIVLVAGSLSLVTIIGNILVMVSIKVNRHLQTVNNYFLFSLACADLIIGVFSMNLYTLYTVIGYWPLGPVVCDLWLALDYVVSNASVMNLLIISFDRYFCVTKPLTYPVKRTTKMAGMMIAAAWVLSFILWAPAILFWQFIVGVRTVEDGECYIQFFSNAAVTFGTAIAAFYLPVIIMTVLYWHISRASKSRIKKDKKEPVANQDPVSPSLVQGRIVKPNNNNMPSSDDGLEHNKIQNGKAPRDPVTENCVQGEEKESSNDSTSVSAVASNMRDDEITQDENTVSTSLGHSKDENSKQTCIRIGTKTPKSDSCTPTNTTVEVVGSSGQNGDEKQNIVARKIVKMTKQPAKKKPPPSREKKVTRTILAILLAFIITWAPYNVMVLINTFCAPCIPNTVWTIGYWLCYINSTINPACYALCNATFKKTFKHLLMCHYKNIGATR
Description: CHRM2 Ca++ Flux Assay (M2_CHO cells, agonist mode). The class given is cell-based. Particulars: M2 CHO cells; for EC50: agonist mode, geometric mean if tested more than once, read-out: M2 FDSS EC50; for Emax: Percent Activity (PA) measured to EC100 of Carbachol, read-out: M2 FDSS PA %. The gist of the method:
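CHO-K1 cells stably expressing human CHRM2 were plated overnight at 12K cells/well and loaded with Ca++ dye for 1–2 h. They were then held 60 minutes in HBSS −Ca/−Mg, 20 mM HEPES, 2.5 mM probenecid, 20 μM ATP. Agonist-mode Ca++ flux was read over 3 minutes. Four-parameter fits of triplicates gave percent activity relative to carbachol EC100.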

`Fc1ccc(OC2COC2)c(C2CCN([C@@H]3COC4(C3)CN(c3nnco3)C4)CC2)c1` [Example 1A, (S)-7-(4-(5-fluoro-2-(oxetan-3-yloxy)phenyl)piperidin-1-yl)-2-(1,3,4-oxadiazol-2-yl)-5-oxa-2-azaspiro[3.4]octane]: in experiment [1], the Emax stood at 0% and the EC50 is more than 25 µM. For the same compound, in experiment [2], the EC50 stood at 0.536 µM and the Emax was 32%.
On to `COCCOc1ccc(F)cc1C1CCN([C@@H]2COC3(C2)CN(c2nnco2)C3)CC1` [Example 1L, (S)-7-(4-(5-fluoro-2-(2-methoxyethoxy)phenyl)piperidin-1-yl)-2-(1,3,4-oxadiazol-2-yl)-5-oxa-2-azaspiro[3.4]octane], for which, in experiment [1], the Emax is 0% and the EC50 was more than 25 µM. For the same compound, in experiment [2], the EC50 is more than 25 µM and the Emax was determined as 0%.
On to `Fc1ccc(OC2CC3(COC3)C2)c(C2CCN([C@H]3COC4(C3)CN(c3nnco3)C4)CC2)c1` [Example 7A, (R)-7-(4-(2-((2-oxaspiro[3.3]heptan-6-yl)oxy)-5-fluorophenyl)piperidin-1-yl)-2-(1,3,4-oxadiazol-2-yl)-5-oxa-2-azaspiro[3.4]octane], for which, in experiment [1], the Emax was 0% and the EC50 is more than 25 µM. Also, in experiment [2], the EC50 is more than 25 µM and the Emax turned out to be 0%.
Take `Fc1ccc(OC[C@H]2CCOC2)c(C2CCN([C@@H]3COC4(C3)CN(c3nncs3)C4)CC2)c1` [Example 5X, (S)-7-(4-(5-fluoro-2-(((S)-tetrahydrofuran-3-yl)methoxy)phenyl)piperidin-1-yl)-2-(1,3,4-thiadiazol-2-yl)-5-oxa-2-azaspiro[3.4]octane]: in experiment [1], the Emax is 0% and the EC50 was more than 25 µM. In experiment [2], the EC50 stood at 1.42 µM and the Emax came out at 43%.
With `Fc1ccc(OCC2CC3(COC3)C2)c(C2CCN([C@@H]3COC4(C3)CN(c3nnco3)C4)CC2)c1` [Example 2S, (S)-7-(4-(2-((2-oxaspiro[3.3]heptan-6-yl)methoxy)-5-fluorophenyl)piperidin-1-yl)-2-(1,3,4-oxadiazol-2-yl)-5-oxa-2-azaspiro[3.4]octane], in experiment [1], the Emax is 0% and the EC50 was more than 25 µM. In addition, in experiment [2], the EC50 worked out at 2.19 µM and the Emax worked out at 29%.
The matching figures for `Fc1ccc(OCC2(F)COC2)c(C2CCN([C@@H]3COC4(C3)CN(c3nnco3)C4)CC2)c1` [Example 2J, (S)-7-(4-(5-fluoro-2-((3-fluorooxetan-3-yl)methoxy)phenyl)piperidin-1-yl)-2-(1,3,4-oxadiazol-2-yl)-5-oxa-2-azaspiro[3.4]octane]: 0%, more than 25 µM, 0.214 µM and 62%.
The matching figures for `Fc1ccc(OCC2CCOCC2)c(C2CCN([C@@H]3COC4(C3)CN(c3nnco3)C4)CC2)c1` [Example 1J, (S)-7-(4-(5-fluoro-2-((tetrahydro-2H-pyran-4-yl)methoxy)phenyl)piperidin-1-yl)-2-(1,3,4-oxadiazol-2-yl)-5-oxa-2-azaspiro[3.4]octane]: 0%, more than 25 µM, 0.874 µM and 35%.
The matching figures for `CC(C)(O)CCOc1ccc(F)cc1C1CCN([C@@H]2COC3(C2)CN(c2nnco2)C3)CC1` [Example 1N, (S)-4-(2-(1-(2-(1,3,4-oxadiazol-2-yl)-5-oxa-2-azaspiro[3.4]octan-7-yl)piperidin-4-yl)-4-fluorophenoxy)-2-methylbutan-2-ol]: 0%, more than 25 µM, more than 25 µM and 0%.
For the compound `Fc1ccc(OC2CC3(COC3)C2)c(C2CCN([C@@H]3COC4(C3)CN(c3nncs3)C4)CC2)c1` [Example 5W, (S)-7-(4-(2-((2-oxaspiro[3.3]heptan-6-yl)oxy)-5-fluorophenyl)piperidin-1-yl)-2-(1,3,4-thiadiazol-2-yl)-5-oxa-2-azaspiro[3.4]octane], the Emax in experiment [1] turned out to be 0%; in experiment [2], 30%. In addition, the values for the EC50 in experiment [1] and in experiment [2] were more than 25 µM and 20.7 µM, respectively.
